# According to US4001248A, “N-cycloalkylmethyl decahydroisoquinolines” (Eli Lilly and Company, priority 1974, dated 1977):
# Values joined by “and” are separate entries in the source; they are usually repeats but may differ in a detail not shown here. Equal values may be shown once.
# How the values were obtained:
# [1] = tested on: morphine induced Straub tail; test: blocking of morphine induced Straub tail in mice; assay type: in vivo; conditions: for blocking on the morphine-induced Straub tail: 15 and 30 minutes before assay
# Protocol: In this assay, a 40 mg./kg. dose of morphine was administered to mice 15 minutes prior to assay, and the test drug at various intervals before assay. Trans-dl-1 -cyclopropylmethyl-3a-(m-hydroxyphenyl)-1,2,3,3a,4,5,6,7,7a,8-decahydroisoquinoline maleate gave a 100 percent block of the Straubed tail effected by a subcutaneous injection of 40 mg./kg. of morphine when the test drug was given at a dose of 50 mg./kg. subcutaneously 15 minutes prior to assay, and 80 percent when given 30 minutes prior to assay. The l(-) isomer gave 100 percent blocking on the morphine-induced Straub tail at 50 and 20 mg./kg. doses 15 and 30 minutes before assay.
# toxicity (L.D.50) = assay type: in vivo, mice; conditions: compared with dl mixture; listed as l(-) isomer
# morphine = test: modified rat tail jerk assay, antagonism of morphine; assay type: in vivo, rats; conditions: subcutaneous
# Protocol: The ability of the compounds of this invention to antagonize the action of morphine, an opiate, is shown by the following modification of the aforementioned rat tail jerk assay: The standard assay procedure is used with the exception that a 7 amps. current is used instead of a 6 amps. current in the hot wire to decrease the measurable agonist effects of the antagonist. The drugs under test are then administered to groups of rats at different dose levels at different times prior to test, with a 5 mg./kg. dose of morphine invariably being administered 10 minutes prior to test. Positive evidence of antagonism is a decreased reaction time over that to be expected from the morphine. […] Among the compounds of this invention, those in which R in Structure I is cyclopropylmethyl are the preferred antagonists, showing activity in the above test procedure. […] In a series of determinations, it was ascertained that the minimum subcutaneous dose necessary to reduce the analgesic effects of a 5 mg./kg. subcutaneous dose of morphine was in the range 2.5-5.0 mg./kg. and the minimum oral dose, 5-10 mg./kg.
# [2] = tested on: writhing in mice induced by the intraperitoneal injection of acetic acid; test: mouse-writhing test (inhibition of writhing induced by intraperitoneal acetic acid); assay type: in vivo; conditions: reading at 0.25 hours
# Description: In the Table, column 1 gives the name of the compund; column 2, the dosage in mg./kg. of mouse weight; column 3, the route of administration of the drug ("S.C." is subcutaneous and "or" is oral); and column 4, the percent inhibition found at the particular dose level. […] Median inhibiting doses (I.D.50) are also included in the Table.
# rat tail jerk = rat tail jerk assay (increase in reaction time over control); assay type: in vivo
# Description: The compounds of this invention are also active in the rat tail jerk assay, another standard pharmacologic test for analgesic activity of the opiate-type. Such activity is manifested as an increase in the reaction time of the animal in removing (jerking) its tail from a nearby heat stimulus (a resistance wire) after drug administration compared to control time (no drug administered). Table 2 which follows gives the increased reaction times over control times produced by the compounds of this invention when administered subcutaneously. In Tables 2 and 3, column 1 gives the name of the compound; column 2, the dose; column 3, time of observation after administration of the drug; column 4, the increase in reaction time above control in seconds; and column 5, the level of significance of the results ("p" value). […] All drugs were administered as aqueous solutions. More than one value for a given dose level indicates multiple determinations. The results are not averaged.
smiles,measurement,setting,value
"O=C(O)/C=C\C(=O)O.Oc1cccc([C@@]23CCCC[C@H]2CN(CC2CC2)CC3)c1 (stereo in doubt) [Trans-l(-)-1-cyclopropylmethyl-3a-(m-hydroxyphenyl)-1,2,3,3a] [Trans-l(-)-1-cyclopropylmethyl-3a-(m-hydroxyphenyl)-1,2,3,3a,4,5,6,7,7a,8-decahydroisoquinoline maleate]",blocking on the morphine-induced Straub tail,[1]; 20 mg./kg.,100%
same,blocking on the morphine-induced Straub tail,[1]; 50 mg./kg.,100%
same,blocking the morphine induced Straub tail,[1]; morphine 40 mg./kg.,manifests antagonistic effects in blocking the morphine induced Straub tail in mice
same,toxicity relative to the dl mixture,toxicity (L.D.50),less toxic than the dl mixture
same,dose showing antagonism of morphine,morphine,1 to 2 mg/kg
same,% Inhibition,[2]; 2 mg./kg. S.C.,47%
same,% Inhibition,[2]; 5 mg./kg. S.C.,72%
same,Increase in Reaction Time Over Control,"rat tail jerk; oral, 5 mg./kg., 60 min",.20 s
same,Increase in Reaction Time Over Control,"rat tail jerk; oral, 10 mg./kg., 60 min",.65 s
same,Increase in Reaction Time Over Control,"rat tail jerk; oral, 25 mg./kg., 60 min",1.30 s
same,Increase in Reaction Time Over Control,"rat tail jerk; oral, 50 mg./kg., 30 min",2.25 s
same,Increase in Reaction Time Over Control,"rat tail jerk; oral, 50 mg./kg., 60 min",2.80 s
same,Increase in Reaction Time Over Control,"rat tail jerk; oral, 50 mg./kg., 120 min",.80 s
same,Increase in Reaction Time Over Control,"rat tail jerk; oral, 100 mg./kg., 60 min",3.15 s
same,Increase in Reaction Time Over Control,"rat tail jerk; oral, 200 mg./kg., 30 min, 20 sec. cut off",4.90 s
same,Increase in Reaction Time Over Control,"rat tail jerk; oral, 200 mg./kg., 60 min",5.40 s
same,Increase in Reaction Time Over Control,"rat tail jerk; oral, 200 mg./kg., 120 min",2.65 s
same,Increase in Reaction Time Over Control,"rat tail jerk; subcutaneous, 0.1 mg./kg., 30 min",85 s
same,Increase in Reaction Time Over Control,"rat tail jerk; subcutaneous, 0.5 mg./kg., 30 min",1.30 s
same,Increase in Reaction Time Over Control,"rat tail jerk; subcutaneous, 1 mg./kg., 30 min",0 s
same,Increase in Reaction Time Over Control,"rat tail jerk; subcutaneous, 5 mg./kg., 10 min",2.75 s
same,Increase in Reaction Time Over Control,"rat tail jerk; subcutaneous, 5 mg./kg., 15 min",3.45 s
same,Increase in Reaction Time Over Control,"rat tail jerk; subcutaneous, 5 mg./kg., 30 min",3.55 s and 2.95 s
same,Increase in Reaction Time Over Control,"rat tail jerk; subcutaneous, 5 mg./kg., 30 min, 20 sec. cut off",6.65 s and 6.95 s
same,Increase in Reaction Time Over Control,"rat tail jerk; subcutaneous, 5 mg./kg., 60 min",1.0 s
same,Increase in Reaction Time Over Control,"rat tail jerk; subcutaneous, 5 mg./kg., 120 min",0 s
same,Increase in Reaction Time Over Control,"rat tail jerk; subcutaneous, 5 mg./kg., 180 min",0 s
same,Increase in Reaction Time Over Control,"rat tail jerk; subcutaneous, 10 mg./kg., 10 min, 20 sec. cut off",7.30 s
same,Increase in Reaction Time Over Control,"rat tail jerk; subcutaneous, 10 mg./kg., 15 min",5.80 s
same,Increase in Reaction Time Over Control,"rat tail jerk; subcutaneous, 10 mg./kg., 15 min, 20 sec. cut off",6.70 s
same,Increase in Reaction Time Over Control,"rat tail jerk; subcutaneous, 10 mg./kg., 60 min",3.0 s
same,Increase in Reaction Time Over Control,"rat tail jerk; subcutaneous, 10 mg./kg., 90 min",2.55 s
same,Increase in Reaction Time Over Control,"rat tail jerk; subcutaneous, 10 mg./kg., 120 min",4.0 s
same,Increase in Reaction Time Over Control,"rat tail jerk; subcutaneous, 10 mg./kg., 180 min",1.50 s
same,Increase in Reaction Time Over Control,"rat tail jerk; subcutaneous, 50 mg./kg., 15 min",7.35 s
